This note sets out measurements from patent US6147076A, “Analogues of N-acetylardeemin, method of preparation and uses thereof” (priority 1996, dated 2000).

Data set [1] deals with DC-3F hamster lung cells. The experiment in a line: Cytotoxicity toward DC-3F hamster lung cells.
The subject of data set [2] is DC-3F/ADII cells.
Data set [3] has as its system CCRF-CEM cells. The experiment in a line: Cytotoxicity / growth inhibition of CCRF-CEM leukemic cells.
The subject of data set [4] is DC-3F hamster lung cells. The settings on record: dc-3f cells.
Another data set relates to CCRF-CEM/VM-1 cells. The experiment in a line: Cytotoxicity toward VM-26-resistant CCRF-CEM/VM-1 cells (mutated Topo II gene). Type of data set: cell-based, human.
Data set [5] has as its system CCRF-CEM/VBL100 cells.
For a further data set, the system named is CCRF-CEM/VLB-100 cells. The experiment in a line: Intracellular accumulation of [3H]vinblastine in CCRF-CEM/VLB-100 cells. In kind it is cell-based, human. Particulars: 30 μM. The method, then: (§1) *Cells were preloaded with [^3 H]
(§2) times (or without wash) with 100 ml cold medium to remove extracellular
(§3) with or without a reverse prenyl compound or an MDRreversing agent. Cells
(§4) were then separated from radioactive medium by microfuge oillayer method.
(§5) Extracellular space counts carried down # by cells (^3 HInulin space
(§6) were subtracted from the total radioactive counts.

Data set [6] has as its system CCRF-CEM cells.
The subject of data set [7] is CCRF-CEM cells. The experiment in a line: Intracellular accumulation of [3H]vinblastine in CCRF-CEM cells. In kind it is cell-based, human. Particulars: 30 μM. The method, then:
as §1, §2, §3, §4, §5, §6

Another data set has as its system DC-3F/ADX cells. The experiment in a line: Cytotoxicity toward DC-3F/ADX cells. Type of data set: cell-based, hamster.
The test system of a further data set is P388/0 tumor. Particulars: DMNAA 50.0 mg/kg.
For data set [8], the system named is CCRF-CEM/VBL100 cells. The experiment in a line: cells. The settings on record: Homo sapiens, read-out: IC50 of reversing agent, Table 6B, CCRF-CEM/VBL.
The subject of data set [9] is DC-3F/ADII cells. The experiment in a line: cells. The settings on record: Mesocricetus auratus, DC3F, read-out: IC50 (B).
Data set [10] deals with CCRF-CEM cells. The experiment in a line: Accumulation of VP-16 in CCRF-CEM cells preloaded with [3H]VP-16. The settings on record: Homo sapiens, 0.5 h, read-out: increase of intracellular accumulation of VP-16.
The next data set deals with CCRF/VM-1 cells. The experiment in a line: Intracellular accumulation of VP-16 in CCRF/VM-1 cells. The settings on record: Homo sapiens, 0.5 h, read-out: increase of VP-16 accumulation.
Data set [11] has as its system CCRF-CEM cells. The experiment in a line: Influx of [3H]VP-16 in CCRF-CEM cells. In kind it is cell-based, human.
The subject of the next data set is P388/O tumor. The experiment in a line: Combination therapy of adriamycin & 5-N-acetyl-ardeemin or verapamil in B6D2F1 mice bearing P388/O tumor.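 Also: male BDF mice carrying P388/O given intraperitoneally, dosing begun on day 1 on a QDX4, QWX2 schedule, five animals per dose level.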 Particulars: VPML 70 mg/kg (then 35).
The next data set has as its system P388/DX tumor. The experiment in a line: Combination therapy of adriamycin & 5-N-acetyl-ardeemin or verapamil in B6D2F1 mice bearing P388/DX tumor.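 Also: male BDF mice implanted intraperitoneally with P388/DX cells, 10^6 per mouse, dosed from day 1 on a QDX4, QWX2 schedule, five mice per dose group.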 Particulars: VPML 70 mg/kg (then 35).
Where [12] appears, read: Mesocricetus auratus, DC3F, relative cytotoxicity, DC-3F.
Where [13] appears, read: Homo sapiens, human leukemic CCRF-CEM cells.

Structures are written as SMILES. Where “and” joins values, the source holds several entries; their conditions need not be identical. Equal values may be shown once. Read-outs that look alike come from different tables or passages of the source.

Description for P388/0 tumor: ^a Male BDF mice were inoculated with P388/O, 10^6 cell/mouse,
i.p. on day 0; and started treatment on day 1, i.p., Q5Dx5, besides mice
with dose VBL 3.0 and VBL 3.0 mg/kg + DMNAA 50 mg/kg, only one injection
i.p., on day 1. There were five mice at every dose and ten in the control
Excerpt for P388/DX tumor: ^a Male BDF mice were inoculated P388/DX, 10^6 cells/mouse, i.p.
starting day 1, QDX4, QWX2. There were five mice at every dose and ten
Excerpt for P388/O tumor: ^a Male BDF mice were inoculated P388/O, 10^6 cells/mouse, i.p. a
starting day 1, QDX4, QWX2.

What is called IC90 is the point of the concentration-response curve where the effect stands at 90%. Lower therefore signals an effect from little substance. The IC80 is the concentration at which the effect reaches the 80% level. Read a high IC80 as a need for much substance. Turning to `C=CCC12CC3c4nc5ccccc5c(=O)n4C(C)C(=O)N3C1N(C(C)=O)c1ccccc12` (stereo not shown) [5-N-Ac"Allyl" ardeemin, "Allyl" 5-N-acetylardeemin], the IC50 in the data set with DC-3F hamster lung cells [1] (setting [12]) is 17.4 µM; in the data set with DC-3F/ADII cells [2] (dc-3f/adii cells) it was 5.21 µM; in the data set on CCRF-CEM cells [3] (setting [13]) it was 53.3 µM; in the data set with CCRF-CEM/VM-1 cells (ccrf-cem/vm-1 cells) it was 45 µM; in the data set with CCRF-CEM/VBL100 cells [5] (ccrf-cem/vbl100 cells), 35.8 µM; in the data set with CCRF-CEM cells [6] it was 53.3 µM. For the same molecule, the IC90 stood at 34.7 µM in the data set on DC-3F/ADII cells [2] (dc-3f/adii cells); 56.2 µM in the data set with DC-3F hamster lung cells [4]; 916 µM with CCRF-CEM/VM-1 cells (ccrf-cem/vm-1 cells); 81.1 µM in the data set with CCRF-CEM/VBL100 cells [5] (ccrf-cem/vbl100 cells); 888 µM with CCRF-CEM cells [6]. The molecule also came in with an 80% effect concentration (IC80) in the data set on DC-3F hamster lung cells [4] of 17.4 µM. Moreover, the “[3H]vinblastine accumulation” value is reported as 6.18 fmole/10^3 cells with CCRF-CEM/VLB-100 cells (washed), 27.21 fmole/10^3 cells in the data set with CCRF-CEM/VLB-100 cells (without wash), 28.88 fmole/10^3 cells in the data set with CCRF-CEM cells [7] (washed) and 33.35 fmole/10^3 cells in the data set on CCRF-CEM cells [7] (without wash).

Regarding `C=CC(C)(C)C12CC3c4nc5ccccc5c(=O)n4CC(=O)N3C1N(C(C)=O)c1ccccc12` (stereo not shown) [5-N-Ac-8-desmethyl-Ardeemin, N-Acetyl-8-desmethyl-ardeemin], the IC50 in the data set with DC-3F hamster lung cells [1] (Mesocricetus auratus, DC3F, read-out: IC50 (A), mean ± spread, mean of the determinations) is 29.3 ± 8.38 µM; in the data set with DC-3F hamster lung cells [1] (Mesocricetus auratus, DC3F, read-out: IC50 (A), single determinations), 37.7 µM; in the data set on DC-3F hamster lung cells [1] (read-out: IC50 (A), single determinations), 20.9 µM; in the data set on DC-3F/ADX cells (DC3F/ADX, DC-3F/ADX) it was 3.98 µM; with CCRF-CEM cells [3] (Homo sapiens, read-out: IC50 of reversing agent, Table 6B, CCRF-CEM), 22.7 µM; in the data set on CCRF-CEM/VM-1 cells (Homo sapiens, CCRF-CEM, Table 6B, CCRF-CEM/VM-1, read-out: IC50 of reversing agent), 35.8 µM. The IC50 in the data set on CCRF-CEM/VBL100 cells [8] amounted to 32.9 µM; in the data set with DC-3F/ADII cells [9], 14.6 µM. The “(C)/(A)” value in the data set with DC-3F/ADX cells (IC50 ratio DC-3F/ADX to DC-3F, * collaterally sensitive) is on record as 0.14 X. Also, the “(B)/(A)” value in the data set with DC-3F/ADII cells [2] (IC50 ratio DC-3F/ADII to DC-3F, * collaterally sensitive) amounted to 0.50 X. In addition, the “% ILS” value in the data set with P388/0 tumor is on record as “+1%”. In the data set with P388/0 tumor, this molecule yielded an MST of 8.40 days. The “[3H]vinblastine accumulation” value in the data set on CCRF-CEM/VLB-100 cells (washed) came out at 7.66 fmole/10^3 cells; in the data set with CCRF-CEM/VLB-100 cells (without wash) it was 33.53 fmole/10^3 cells; with CCRF-CEM cells [7] (washed), 29.33 fmole/10^3 cells; with CCRF-CEM cells [7] (without wash) it was 33.13 fmole/10^3 cells.

On to `C=CC(C)(C)C12CC3c4nc5ccccc5c(=O)n4C(C)C(=O)N3C1Nc1ccccc12` (stereo not shown) [Ardeemin], for which the IC50 came out at 10.2 µM with DC-3F hamster lung cells [1] (setting [12]) and 20.8 µM with CCRF-CEM cells [3] (setting [13]). For the same molecule, the fold induction at 20 µM was found to be 3.1 with CCRF-CEM cells [10] and 1.51 with CCRF/VM-1 cells. The 90% effect concentration (IC90) with DC-3F/ADII cells [2] (dc-3f/adii cells) was 24.6 µM; with DC-3F hamster lung cells [4], 30.9 µM; in the data set with CCRF-CEM/VM-1 cells (ccrf-cem/vm-1 cells), 88.8 µM; with CCRF-CEM/VBL100 cells [5] (ccrf-cem/vbl100 cells) it was 27.9 µM; with CCRF-CEM cells [6], 65.7 µM. For the same molecule, the 80% effect level with DC-3F hamster lung cells [4] (IC80) was put at 10.2 µM. Also, the “[3H]vinblastine accumulation” value in the data set on CCRF-CEM/VLB-100 cells (washed) worked out at 5.42 fmole/10^3 cells; with CCRF-CEM/VLB-100 cells (without wash) it was 22.84 fmole/10^3 cells; in the data set with CCRF-CEM cells [7] (washed) it was 29.94 fmole/10^3 cells; in the data set with CCRF-CEM cells [7] (without wash), 34.68 fmole/10^3 cells. The activation at 20 µM with CCRF-CEM cells [11] (Homo sapiens, CCRF-CEM, 0.5 h, 20 μM, 30 min, 37° C., read-out: increase of VP-16 accumulation) was 33%.

Take `COc1ccc(CCN(C)CCCC(C#N)(c2ccc(OC)c(OC)c2)C(C)C)cc1OC` (stereo not shown) [Verapamil, verapamil]: the results for the “% ILS” value in the data set on P388/O tumor and in the data set on P388/DX tumor were “+1%” and “+5%”, respectively. In addition, the values for the MST in the data set on P388/O tumor and in the data set on P388/DX tumor were 7.7 days and 7.9 days, respectively. Also, the Days survived in the data set on P388/O tumor (individual mice 1-5) is 7.0 days and 8.0 days and 8.6 days; with P388/DX tumor (individual mice 1-5) it was 6.5 days and 7.25 days and 8.25 days and 9.25 days. Also, the collateral sensitivity result with DC-3F/ADII cells [2] (in words) is “Collateral sensitivity is also observed”. The IC50 turned out to be 296 µM in the data set with CCRF-CEM cells [3] (read-out: IC50 of reversing agent, Table 6B); 118 µM in the data set on CCRF-CEM/VM-1 cells (Table 6B, CCRF-CEM/VM-1, read-out: IC50 of reversing agent); 118 µM in the data set on CCRF-CEM/VBL100 cells [5] (read-out: IC50 of reversing agent, Table 6B, CCRF-CEM/VBL). Further, the VP-16 accumulation entry in the data set with CCRF-CEM cells [11] (100 μM, in words) is given as “also increased VP-16 accumulation”.
